Reference: patent publication US20080044484A1, “Use of polymeric nanoparticles for vaccine delivery” (THE REGENTS OF THE UNIVERSITY OF CALIFORNIA, priority 2004, published 2008)

Legend:
[1] = system: T2 cells; assay: IFNγ release by CTL (ELISA) after incubation with peptide-loaded T2 cells; format: cell-based, human; conditions: CTL elicited with the corresponding HER2/neu peptide, 20 h, 10^5 CTL/well
Method: In interferon gamma-release assays, 10^5 HER2/neu-specific CTL were co-incubated with 10^5 peptide-loaded T2 cells for 20 hours at 37° C. The concentrations of human interferon gamma in co-cultured supernatants were then determined by ELISA.

[2] = system: T2 cells; assay: 51Cr-release assay using T2 cells pulsed with HER2/neu-derived peptides as targets for CTL; conditions: T2 pulsed with the peptide; percentage of specific lysis
Method: To probe class I presentation of cells loaded with the fusion peptides and their counterpart minimal peptides CTL recognizing the HER2/neu-derived peptides were generated. In vitro peripheral blood mononuclear cells (PBMCs) were immunized from healthy donors with these peptides in the presence of interleukin 2 and interleukin 7 using the following technique:
The next day, 12 units/ml IL-2 (Chiron) and 30 units/ml IL-7 (R & D Systems) were added to the cultures. Lymphocytes were re-stimulated weekly with peptide-pulsed autologous adherent cells as follows: First, autologous PBMC were incubated with HER2/neu peptide (10 μg/ml) for 3 h at 37° C. Nonadherent cells were then removed by a gentle wash and the adherent cells were incubated with fresh medium containing the HER2/neu peptide (10 μg/ml) for an additional 3 h at 37° C.
The induction of CTL in human PBMC was monitored in a conventional ^51Cr-labeling release assay. Briefly, peptide-pulsed TAP^−/HLA-A2.1^+ human T2 cells were incubated with 10 μg of HER2/neu peptides or the MART-1 control peptide for 90 min during labeling with ^51Cr. After washing, the target cells were added to serially diluted effectors in 96-well microplates. After a 6-h incubation at 37° C., supernatants were harvested and counted in a gamma counter. Results are expressed as the percentage of specific lysis and determined as follows: [(experimental cpm−spontaneous cpm)/(maximum cpm−spontaneous cpm)]×100.

[3] = system: breast cancer cells MDA-MB-231; assay: IFNγ release by CTL (ELISA) after incubation with peptide-loaded MDA-MB-231 cells; format: cell-based, human; conditions: CTL elicited with the corresponding HER2/neu peptide, 20 h, 10^5 CTL/well
Method: In interferon gamma release assays, 10^5 HER2/neu-specific CTL were co-incubated with 10^5 peptide-loaded tumor cells for 20 hours at 37° C. The concentration of human interferon gamma in co-cultured supernatants was then determined by ELISA.

[4] = system: ICP47-transfected cells MCF7; assay: Functional blockade of TAP by ICP47, 51Cr-release from peptide-loaded cells; format: cell-based, human; conditions: CTL reactive against the corresponding HER2/neu peptide, 3 days after peptide loading, 6-hour assay
Excerpt: Another aspect in these studies was to determine the mechanisms of enhancement of the antigen presentation by the fusion peptides in human tumor cell lines. Therefore, a new test system was developed utilizing the Herpes Simplex virus (HSV) protein ICP47. ICP47 is a cytoplasmic protein, which interferes with antigen presentation by physically associating with TAP within the cell and inhibiting peptide transport across the ER-membrane. By transfecting the ICP47 gene into several cancer cell lines a novel system for screening different fusion peptides for TAP-independent translocation of peptide antigens through the ER-membrane was generated.
The expression of these antigens was detected by ^51Cr-release assays.

Substance	Release of IFNγ by CTL, T2 cells loaded with the peptide ([1]; Day 1 after peptide loading) [pg/mL]	Release of IFNγ by CTL, T2 cells loaded with the peptide ([1]; Day 3 after peptide loading) [pg/mL]	Release of IFNγ by CTL, T2 cells loaded with the peptide ([1]; Day 5 after peptide loading) [pg/mL]	Release of IFNγ by CTL, T2 cells loaded with the peptide ([1]; Day 8 after peptide loading) [pg/mL]	51Cr-release, E:T ratio 1.5:1 [2] [%]	51Cr-release, E:T ratio 3.1 [2] [%]	51Cr-release, E:T ratio 6:1 [2] [%]	51Cr-release, E:T ratio 12:1 [2] [%]	51Cr-release, E:T ratio 25:1 [2] [%]	51Cr-release, E:T ratio 50:1 [2] [%]	Release of IFNγ by CTL, MDA-MB-231 cells loaded with the peptide ([3]; Day 1 after peptide loading) [pg/mL]	Release of IFNγ by CTL, MDA-MB-231 cells loaded with the peptide ([3]; Day 3 after peptide loading) [pg/mL]	Release of IFNγ by CTL, MDA-MB-231 cells loaded with the peptide ([3]; Day 5 after peptide loading) [pg/mL]	Release of IFNγ by CTL, MDA-MB-231 cells loaded with the peptide ([3]; Day 8 after peptide loading) [pg/mL]	Percent 51Cr Released From ICP47-transfected MCF7 cells loaded with the construct ([4]; E:T 20:1) [%]	Percent 51Cr Released From ICP47-transfected MCF7 cells loaded with the construct ([4]; E:T 40:1) [%]
CLTSTVQLV (listed as Homo sapiens) [HER2/neu789-797]	2924	317	116	91	9	22	31	52	62	83	–	–	–	–	–	–
CLTSTVQLV MRYMILGLLALAAVCSA (CLTSTVQLVMRYMILGLLALAAVCSA) [HER789-797-ES]	58	78	69	98	–	–	–	–	–	–	–	–	–	–	–	–
CLTSTVQLV MTNKCLLQIALLLCFSTTA (CLTSTVQLVMTNKCLLQIALLLCFSTTA) [HER789-797-IS]	69	78	87	59	–	–	–	–	–	–	–	–	–	–	–	–
HLYQGCQVV (listed as Homo sapiens) [HER2/neu48-56]	2280	488	134	177	8	19	33	41	53	88	–	–	–	–	–	–
HLYQGCQVV MRYMILGLLALAAVCSA (HLYQGCQVVMRYMILGLLALAAVCSA) [HER48-56-ES]	418	218	99	101	–	–	–	–	–	–	–	–	–	–	–	–
HLYQGCQVV MTNKCLLQIALLLCFSTTALS (HLYQGCQVVMTNKCLLQIALLLCFSTTALS) [HER48-56-IS]	288	148	155	121	–	–	–	–	–	–	–	–	–	–	–	–
IISAVVGIL (listed as Homo sapiens) [HER2/neu654-662, reference compound]	2827	429	121	167	13	26	38	59	71	91	2826	438	131	147	–	–
IISAVVGIL MRYMILGLLALAAVCSA (IISAVVGILMRYMILGLLALAAVCSA) [HER654-662-ES]	144	124	137	83	–	–	–	–	–	–	188	138	135	93	–	–
IISAVVGIL MTNKCLLQIALLLCFSTTALS (IISAVVGILMTNKCLLQIALLLCFSTTALS) [HER654-662-IS]	111	99	121	76	–	–	–	–	–	–	144	102	132	86	–	–
M A CLTSTVQLV A A A A A G (MACLTSTVQLVAAAAAG) [HER789-797-IN-AF]	296	327	178	117	–	–	–	–	–	–	–	–	–	–	–	–
M R CLTSTVQLV A A V C S A (MRCLTSTVQLVAAVCSA) [HER789-797-IN-ES]	246	312	121	107	–	–	–	–	–	–	–	–	–	–	–	–
M R IISAVVGIL A A V C S A (MRIISAVVGILAAVCSA) [HER654-662-IN-ES]	2929	2773	1699	671	–	–	–	–	–	–	2727	2666	1708	667	2	2
MR HLYQGCQVV AAVCSA (MRHLYQGCQVVAAVCSA) [HER48-56-IN-ES]	3368	1349	988	228	–	–	–	–	–	–	–	–	–	–	–	–
MRYMILGLLALAAVCSA CLTSTVQLV (MRYMILGLLALAAVCSACLTSTVQLV) [ES-HER789-797]	1824	526	168	110	–	–	–	–	–	–	–	–	–	–	–	–
MRYMILGLLALAAVCSA HLYQGCQVV (MRYMILGLLALAAVCSAHLYQGCQVV) [ES-HER48-56]	2894	1876	953	589	–	–	–	–	–	–	–	–	–	–	–	–
MTNKCLLQIALLLCFSTTALS CLTSTVQLV (MTNKCLLQIALLLCFSTTALSCLTSTVQLV) [IS-HER789-797]	1717	315	125	104	–	–	–	–	–	–	–	–	–	–	–	–
MTNKCLLQIALLLCFSTTALS HLYQGCQVV (MTNKCLLQIALLLCFSTTALSHLYQGCQVV) [IS-HER48-56]	3268	1264	943	614	–	–	–	–	–	–	–	–	–	–	–	–
